# Columns and labels:
# [1] = biological target: T1, RBL-1 Cell Cyclooxygenase (Rattus norvegicus, UniProt Q63921); experiment: Procedure II: cyclooxygenase inhibition in disrupted RBL-1 cells (supernatant as enzyme source); assay type: biochemical; conditions: for IC50: read-out: IC50 CO (Procedure II)
# T1 construct: the supernatant was saved as the source of enzymes; endogenous in cells; host or cells: RBL-1 (rat basophilic leukemia cells), 10,000×g supernatant of homogenate
# T1 sequence (Q63921 27-602): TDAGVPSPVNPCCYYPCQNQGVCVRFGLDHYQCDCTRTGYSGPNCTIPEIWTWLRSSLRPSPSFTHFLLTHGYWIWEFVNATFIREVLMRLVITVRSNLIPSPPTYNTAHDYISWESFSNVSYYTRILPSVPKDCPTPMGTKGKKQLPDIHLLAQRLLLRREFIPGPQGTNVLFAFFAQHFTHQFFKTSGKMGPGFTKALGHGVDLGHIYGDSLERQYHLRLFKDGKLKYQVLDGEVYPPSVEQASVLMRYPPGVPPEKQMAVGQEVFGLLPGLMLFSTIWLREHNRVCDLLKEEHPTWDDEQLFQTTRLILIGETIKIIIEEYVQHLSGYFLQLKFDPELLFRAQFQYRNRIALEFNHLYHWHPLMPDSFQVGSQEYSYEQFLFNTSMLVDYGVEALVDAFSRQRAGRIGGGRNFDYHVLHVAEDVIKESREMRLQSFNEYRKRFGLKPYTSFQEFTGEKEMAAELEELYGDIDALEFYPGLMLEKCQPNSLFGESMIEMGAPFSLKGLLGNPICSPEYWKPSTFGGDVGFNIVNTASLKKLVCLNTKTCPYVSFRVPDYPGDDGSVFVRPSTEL
# Protocol: RBL-1 Cell 5-Lipoxygenase and Cyclooxygenase
# Rat basophilic leukemia cells (RBL-1; 5×10^7 viable cells/mL) were disrupted by homogenization on ice (four 20 sec bursts) with a Brinkman polytron. Complete cell breakage was verified microscopically. The homogenate was then centrifuged at 10,000×g for 48 minutes at 4° C. The pellet was discarded and the supernatant was saved as the source of enzymes. The supernatant was pre-incubated for five minutes at 37° C. in the presence of 2 mM of CaCl2 and compound or vehicle (1% DMSO). The conversion of AA into 5-LO products was initiated by adding 10 μL (50 μCi) of 1-^14 C-AA to each tube and incubated at 37° C. for 20 minutes. The reaction was stopped by adjusting the pH of each sample to 3 to 3.5 with 2M formic acid. Samples were extracted with three volumes of chloroform to isolate the products of 5-LO formed during the reaction. Fractions were dried under nitrogen, then resuspended in 40 μL of chloroform and spotted onto silica gel HL plates. The plates were developed in A-9 solvent. The dried plates were analyzed using a Bioscan Imaging TLC scanner to determine the percentage of radiolabelled AA converted to 5-HETE in each sample.
# In the following tables, the superscripts indicate the number of experiments and, unless otherwise stated, the dose at which % inhibition is reported is 3 MPK.
# [2] = biological target: T2, Sheep Seminal Vesicle Cyclooxygenase (Ovis aries, UniProt P05979); experiment: Procedure I: sheep seminal vesicle (SSV) cyclooxygenase inhibition; assay type: biochemical; conditions: for IC50: SSV CO; for % INHIB. CO (Procedure I): dose 3 MPK unless otherwise stated (so in the source)
# T2 construct: purchased Biomol (Plymouth Meeting, Pa.); host or cells: sheep seminal vesicle
# T2 sequence (P05979 25-600): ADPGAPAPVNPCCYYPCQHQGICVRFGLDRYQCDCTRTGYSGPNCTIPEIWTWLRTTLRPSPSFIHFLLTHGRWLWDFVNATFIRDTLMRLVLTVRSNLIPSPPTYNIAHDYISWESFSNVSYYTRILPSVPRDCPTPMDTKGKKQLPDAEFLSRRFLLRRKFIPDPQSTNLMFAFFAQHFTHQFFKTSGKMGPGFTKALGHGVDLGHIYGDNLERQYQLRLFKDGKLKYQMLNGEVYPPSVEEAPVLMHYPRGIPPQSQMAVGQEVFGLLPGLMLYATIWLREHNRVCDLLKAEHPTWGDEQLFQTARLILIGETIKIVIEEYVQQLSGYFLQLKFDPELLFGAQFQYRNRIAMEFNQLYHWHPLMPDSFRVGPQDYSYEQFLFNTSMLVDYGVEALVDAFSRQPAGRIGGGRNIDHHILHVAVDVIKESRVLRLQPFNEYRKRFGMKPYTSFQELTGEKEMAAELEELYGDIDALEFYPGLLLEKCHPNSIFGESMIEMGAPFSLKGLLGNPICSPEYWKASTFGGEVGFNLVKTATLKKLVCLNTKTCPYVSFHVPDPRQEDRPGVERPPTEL
# Protocol: Sheep Seminal Vesicle Cyclooxygenase Sheep seminal vesicle (SSV) cyclooxygenase (95% pure, prostaglandin endoperoxide synthase, EC 1.14.99.1 specific activity 24 units/mg protein) obtained as a lyophilized powder from Biomol (Plymouth Meeting, Pa.) was reconstituted at a concentration of 59 mg/mL in Hanks' Balanced Salt Solution (HBSS). The enzyme was divided into 200 μL aliquots, snap frozen with liquid N2, and stored at -70° C. until immediately prior to use. Measurements of CO activity were carried out in polypropylene tubes containing 495 μL of HBSS to which was added 5 μL Of inhibitor or dimethylsulfoxide (DMSO; vehicle control) and 6 μL of SSV CO solution. The tubes were mixed on a vortex shaker, preincubated for 5 min at 37° C. prior to the initiation of the reaction. The reaction was started by the addition of [^14 C]-arachidonic acid (1-^14 C-AA, Amersham, Arlington Heights, Ill.) in 10 μL of methanol. Tubes were again vortexed and incubated in a water bath for 20 minutes after which the tubes were removed and the reaction stopped by acidification with the addition of 1 mL 2M formic acid. Lipophilic products were extracted with 3 mL chloroform and concentrated to dryness under N2. Each pellet was reconstituted with 40 μL of chloroform and spotted on a Whatman Silicon thin-layer chromatography plate and developed in a chromatography tank containing A-9 solvent (11:5:2:1 V:V:V:V, ethyl acetate:trimethyl-pentane:acetic acid:double distilled-H2 O). Radioactive cyclooxygenase products (prostaglandin D2, prostaglandin E2, etc.) were measured using a Bioscan System 200 Imaging Scanner. Inhibition of enzyme activity was calculated by comparing the areas under the curve produced in the presence or absence of test compound. In the following tables, the superscripts indicate the number of experiments and, unless otherwise stated, the dose at which % inhibition is reported is 3 MPK.
Compound,% INHIBITION CO (Procedure II) [1],IC50 [1],IC50 [2],% INHIB. CO (Procedure I) [2]
COc1ccc(-n2nc(CCCOC(=O)N(C)O)c(Cl)c2-c2ccc(Cl)cc2)cc1 [3-D],100%,2250 nM,2550 nM,68%
COc1ccc(-n2nc(COC(=O)NO)c(Cl)c2-c2ccc(C)cc2)cc1 [1-P],0%,1090 nM,5000 nM,52%
COc1ccc(-n2nc(COC(=O)N(O)C(C)C)cc2-c2ccc(Cl)cc2)cc1 [1-C],80%,1100 nM,520 nM,92%
COc1ccc(-n2nc(COC(=O)N(O)C(C)C)c(Br)c2-c2ccc(Cl)cc2)cc1 [1-F],0%,880 nM,,44%

# The next molecules have a lower IC50 [1] than those just listed; values first:
% INHIBITION CO (Procedure II) [1],IC50 [1],IC50 [2],% INHIB. CO (Procedure I) [2],Compound
4%,410 nM,480 nM,58%,COc1ccc(-n2nc(CCOC(=O)N(O)C(C)C)c(Br)c2-c2ccc(Cl)cc2)cc1 [2-F]
82%,210 nM,2160 nM,93%,COc1ccc(-n2nc(COC(=O)N(C)O)c(Cl)c2-c2ccc(C)cc2)cc1 [1-Q]
39%,830 nM,,22%,COc1ccc(-n2nc(CCOC(=O)N(C)O)c(Br)c2-c2ccc(C)cc2)cc1 [2-L]

# Reference: patent US5387602A, “1.5-diphenyl-3-(N-hydroxycarbamoyloxyalkyl)pyrazoles” (Ortho Pharmaceutical Corporation, priority 1993, dated 1995)
